Earlier results, collected in patent publication EP0136475A2, “Novel growth hormone-releasing peptides and method of treating mammals therewith” (The Administrators of The Tulane University Educational Fund, priority 1983, dated 1985).
No end group written: not given here.

Tested on: rat anterior pituitary

Substance | intrinsic biological activity (reported by Spiess et al.) | growth hormone(GH)-releasing activity (rat anterior pituitary in vitro and in vivo)
hp GRF(1-29)-NH2: a synthetic amidated fragment of the natural hp GRF (YADAIFTNSYRKVLGQLSARKLLQDIMSR-NH2; UniProt P01286 32-60, looked up, fragment) | full intrinsic biological activity | –
hpGRF: growth hormone-releasing factors (GRF) of human pancreatic islet tumor origin (YADAIFTNSYRKVLGQLSARKLLQDIMSRQQGESNQERGARARL-NH2; ends and bridges not checked; UniProt P01286 32-75, looked up) | – | possess growth hormone(GH)-releasing activity
